Assay results published in ChEMBL document CHEMBL4043090 (Bioorg Med Chem, 2017).

Columns and labels:
[1] = tested on: Human immunodeficiency virus 1; test: microbe, parasite or virus in culture; conditions: Human immunodeficiency virus 1, NL4-3, MAGI-CCR5, 48 h
Description: Antiviral activity against wild type HIV-1 NL4-3 infected in human MAGI-CCR5 cells assessed as reduction in viral infection after 48 hrs by fluorescence based beta-galactosidase reporter gene assay

[2] = tested on: Human immunodeficiency virus 1; test: Antiviral activity against HIV-1 NL4-3 harboring reverse transcriptase K103N mutant infected in human MAGI-CCR5 cells assessed as reduction in viral infection after 48 hrs by fluorescence based beta-galactosidase reporter gene assay; type: functional, cell-based; conditions: Human immunodeficiency virus 1, NL4-3, MAGI-CCR5, 48 h
[3] = tested on: Human immunodeficiency virus 1; test: Antiviral activity against HIV-1 Bal infected in human MAGI-CCR5 cells assessed as reduction in viral infection after 48 hrs by fluorescence based beta-galactosidase reporter gene assay; type: functional, cell-based; conditions: for IC50 / IC90: Human immunodeficiency virus 1, Bal, MAGI-CCR5, 48 h
[4] = tested on: Human immunodeficiency virus 1; test: microbe, parasite or virus in culture; conditions: Human immunodeficiency virus 1, NL4-3, MAGI-CCR5, 48 h; remark: listed apart in the source
Description: Antiviral activity against HIV-1 NL4-3 harboring reverse transcriptase E138A mutant infected in human MAGI-CCR5 cells assessed as reduction in viral infection after 48 hrs by fluorescence based beta-galactosidase reporter gene assay

[5] = tested on: Human immunodeficiency virus 1; type: functional, cell-based; conditions: Human immunodeficiency virus 1, NL4-3, MAGI-CCR5, 48 h
[6] = tested on: PBMC; test: Antiviral activity against HIV-1 Bal infected in human PBMC by MTS assay; type: functional, cell-based
[7] = tested on: Human immunodeficiency virus 1; type: functional, cell-based; conditions: Human immunodeficiency virus 1, A17, MAGI-CCR5, 48 h
[8] = Cytotoxicity against human MAGI-CCR5 cells assessed as reduction in cell viability after 48 hrs by MTS assay; type: cell-based; conditions: read-out: TC50
[9] = Therapeutic index, ratio of TC50 for human PBMC to IC50 for HIV-1 Bal infected in human PBMC
[10] = Cytotoxicity against human PBMC assessed as reduction in cell viability by MTS assay; type: cell-based; conditions: read-out: TC50 (the source's name)
[11] = tested on: Human immunodeficiency virus 1; test: (§1) Inhibition of HIV1 NL4-3 reverse transcriptase assessed as reduction in [3H]dTTP incorporation using poly(rA)/oligo(dT) as template/primer after 1 hr by microbeta scintillation counting analysis
[12] = as §1; parameters: species or system Human immunodeficiency virus 1
[13] = Therapeutic index, ratio of TC50 for human MAGI-CCR5 cells to IC50 for HIV-1 NL4-3 harboring reverse transcriptase E138A mutant infected in MAGI-CCR5 cells
[14] = Metabolic stability in rat liver microsomes assessed as compound remaining at 4 uM preincubated for 5 mins followed by NADPH addition measured after 60 mins by LC/MS analysis; type: ADME, microsome; conditions: read-out: Stability
[15] = Metabolic stability in rat plasma assessed as compound remaining at 100 uM after 1 hr by LC/MS analysis; type: ADME, cell-free; conditions: read-out: Stability
[16] = Therapeutic index, ratio of TC50 for human MAGI-CCR5 cells to IC50 for HIV-1 Bal infected in MAGI-CCR5 cells
[17] = Therapeutic index, ratio of TC50 for human MAGI-CCR5 cells to IC50 for HIV-1 NL4-3 harboring reverse transcriptase K103N mutant infected in MAGI-CCR5 cells
[18] = Therapeutic index, ratio of TC50 for human MAGI-CCR5 cells to IC50 for HIV-1 NL4-3 infected in MAGI-CCR5 cells

Compound	IC50 [1] [nM]	IC90 [1] [nM]	IC50 [2] [nM]	IC90 [2] [nM]	Activity [3]	IC50 [3] [nM]	IC90 [3] [nM]	IC90 [4] [nM]	IC50 [5] [nM]	IC90 [5] [nM]	IC50 [6] [nM]	IC90 [6] [nM]	IC50 [7] [nM]	CC50 at 48 h [8] [nM]	TI [9]	CC50 [10] [nM]	remaining at 1 h, 4 µM [14] [%]	remaining at 1 h, 100 µM [15] [%]	TI [16]	TI [18]	further results
Cc1ccnc2c1NC(=O)c1cccnc1N2C1CC1 [NEVIRAPINE]	40 to 70	540 to 600	30	350	Dose-dependent effect	40	30 to 420	> 10000	> 10000	> 10000	40 to 60	180 to 190	> 10000	–	–	–	–	–	–	–	–
Cc1cn([C@H]2C[C@H](N=[N+]=[N-])[C@@H](CO)O2)c(=O)[nH]c1=O [ZIDOVUDINE]	–	350	10	210	–	–	–	> 1000	9	100	–	–	–	> 1000	–	–	–	–	–	–	–
CC1=C(c2nc(-c3ccc(C#N)cc3)cs2)[C@@H](c2cccc(O)c2)NC(=O)N1	–	–	–	–	–	–	–	–	–	–	110	420	–	–	>909	> 100000	–	–	–	–	inhibition [11]: Dose-dependent effect; IC50 [12]: 600 nM
CC1=C(c2nc(-c3ccc(C#N)cc3)cs2)[C@H](c2cccc(O)c2)NC(=O)N1	–	–	–	–	–	–	–	–	–	–	22000	77000	–	–	>4.5	–	–	–	–	–	IC50 [12]: > 10000 nM
CC1=C(c2nc(-c3ccc(C#N)cc3)cs2)C(c2cc3ccccc3n2C)NC(=O)N1 (stereo not given)	520 to 900	5000 to 8390	3840	> 100000	Dose-dependent effect	700	3700	> 100000	> 100000	> 100000	1100	3200	> 100000	> 100000	91	> 100000	62.9	95.6	143	>=111 - 192	TI [13]: >2.3; IC50 [4]: 43500 nM; TI [17]: >26.04
CC1=C(c2nc(-c3ccc(C#N)cc3)cs2)C(c2ccc(O)cc2)NC(=O)N1 (stereo not given)	60	620	–	–	Dose-dependent effect	40	520	–	–	–	40	120	28000	> 10000	2500	> 100000	100	100	250	765	IC90 [7]: 95000 nM
COc1ccc(C2NC(=O)NC(C)=C2c2nc(-c3ccc(C#N)cc3)cs2)cn1 (stereo not given)	< 320	1900	–	–	Dose-dependent effect	100	580	–	–	–	120	430	> 100000	> 10000	833	> 100000	69.4	100	100	>313	IC90 [7]: > 100000 nM
